“Also recorded” adds a separate entry of the source.

We go through one compound from article PMC9230136 (Pharmaceutics, 2022).

The subject of data set [1] is HeLa cells. The data set can be described thus: Scratch-migration assay. It is filed as cell-based, human. As to conditions: 0.625–10 nM; 24 and 48 h. Here is the method:
HeLa cells were plated at 100,000 cells per well in a 6-well plate and incubated at 37 °C for 24 h. The day after seeding, cells were nearly confluent, so the sheet of cells was gently wounded through the horizontal and vertical axes using a micropipette tip. Cells were rinsed twice with PBS solution to remove cell debris; next, they were treated with different sublethal concentrations of compound 8q. At different time points, four images per experimental condition were captured using a stereomicroscope at 10X magnification. The distance between the two edges of the wound area was quantified with ImageJ software.

The subject of data set [2] is HeLa cells. The data set can be described thus: Cell cycle analysis (PI, flow cytometry). Conditions: 50 nM, 24 h. It is filed as cell-based, human. As to the method: HeLa cells were seeded at 100,000 cells per well on 6-well tissue culture plates. After 24 h, cells were treated with different test compound concentrations or DMSO for another 24 h. Cells were then fixed and stained with propidium iodide (PI). The fluorescence intensity of 10,000 single-cell events was measured with a Beckman Coulter Cytomics FC500 instrument (Beckman Coulter Italia, Milano, Italy) and the data were analyzed with MultiCycle for Windows software from Phoenix Flow Systems (San Diego, CA, USA).

For data set [3], the system named is HeLa. The experiment in a line: Antiproliferative assay (resazurin, 72 h). Conditions: Table 2, mean ± SE. It is filed as cell-based, human. Summed up: (§1)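 Seed cells; after 24 h add compounds (10 mM DMSO stocks, diluted 5-fold serially from 10 μM). Incubate 72 h, then add resazurin for 3–4 h and measure fluorescence (535/600 nm). HT-29 was grown in RPMI-1640 and the others in DMEM, with 10% FBS.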
(The colour change of resazurin is a common sign of viable cells or microbes.)

In data set [4] the test system is Jurkat. The data set can be described thus: Antiproliferative assay (resazurin, 72 h). The format is cell-based, human. Conditions: Table 2; mean ± SE; 72 h. Summed up: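 Jurkat T-cell leukemia cells, grown in RPMI-1640 containing 10% fetal bovine serum, 115 units/mL penicillin G and 115 μg/mL streptomycin, were plated in 96-well plates. After 24 h they received serial 5-fold dilutions of test compounds starting at 10 μM, in triplicate, and were kept 72 h at 37 °C in 5% CO2.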

The subject of data set [5] is A549. The data set can be described thus: Antiproliferative assay (resazurin, 72 h). It is filed as cell-based, human. As to conditions: Table 2, mean ± SE. Put shortly: as §1
For data set [6], the system named is MDA-MB-231. The data set can be described thus: Antiproliferative assay (resazurin, 72 h). It is filed as cell-based, human. As to conditions: Table 2; mean ± SE; 72 h. Put shortly: as §1
The subject of data set [7] is PBL stimulated with PHA. The data set can be described thus: Cytotoxicity in human PBLs stimulated with PHA. The format is cell-based. Conditions: 72 h, read-out: IC50 PBLPHA. An excerpt: Human PBLs were obtained from healthy donors by separation on a Lymphoprep^TM (Serumwerk Bernburg AG) gradient and were used for the evaluation of the cytotoxic potential of compounds under study in normal human cells. Buffy coats were obtained from the Blood Transfusion Service, Azienda Ospedaliera of Padova and provided at this institution for research purposes without identifier. The samples were not obtained specifically for this study, and for this reason ethical approval was not required. Informed consent was obtained from blood donors according to Italian law no. 219 (21 October 2005). Data were treated by the Blood Transfusion Service according to Italian law on personal data management “Codice in materia di protezione dati personali” (Testo Unico D.L. Giugno 30, 2003 196).
After extensive washing with saline solution (BioConcept, Hank’s Buffered Saline Solution), quiescent PBLs were resuspended (1.0 × 10^6 cells/mL) in RPMI-1640 medium supplemented with 10% fetal bovine serum. Cytotoxicity evaluations were conducted also in cultures of proliferating PBLs, stimulated with […] PHA (Irvine Scientific). Both resting and proliferating lymphocytes were seeded in 96-well plates and maintained overnight at 37 °C in a humidified 5% CO2 incubator. Serial (5-fold) dilutions of the tested compounds were added, and viability was determined 72 h later by the resazurin viability assay as described above.

Data set [8] deals with Zebrafish embryos. The experiment in a line: Acute toxicity assessment in zebrafish embryos. It is filed as in vivo, Danio rerio. As to conditions: for Results (toxicity evaluation) / % Alterations 24 h / % Lethality 24 h / % Alterations 48 h / % Lethality 48 h: 72 hpf embryos. As to the method: Zebrafish embryos at 72 h post fertilization (hpf) were selected for the acute toxicity assay since, at that time, morphogenesis and function of the primary organ systems are complete. Embryos at 72 hpf were assayed in a 12-well plate, 20 larvae/well for each experimental condition.
The zebrafish embryos were treated as described in the Biological Results and Discussion section using drug concentrations selected on the basis of in vitro experimental data. The drugs were added directly to the fish water from 10 mM stock solutions in DMSO of tested compounds. […] CA-4P was employed as the reference compound.
The experiment was carried out at a constant temperature (28.5 °C) in the dark, and at 24 and 48 h time points, zebrafish were subjected to visual observation and image acquisition under a stereomicroscope (Nikon SMZ745T; Nikon, Japan). The number of dead zebrafish embryos for each condition was recorded, and morphological defects were evaluated. The survival rate (%) after treatment was calculated.

Data set [9] concerns HeLa cells. The data set can be described thus: Mitochondrial membrane potential (JC-1). Conditions: Figure 8A representative plot; concentration not given. It is filed as cell-based, human. As to the method: The mitochondrial potential was evaluated in HeLa cells by flow cytometry using the cell membrane permeable cationic dye 5,5′,6,6′-tetrachloro-1,1′,3,3′-tetraethyl-imidacarbocyanine iodide (JC-1) (Molecular Probes) as described previously. The production of ROS was measured in HeLa cells by flow cytometry using 2′,7′-dichlorodihydrofluorescein diacetate (H2DCFDA) (Molecular Probes) as described previously.

Data set [10] concerns HeLa cells. The experiment in a line: Apoptosis by annexin-V-FITC/PI flow cytometry. The format is cell-based, human. As to the method: Surface exposure of phosphatidylserine on apoptotic cells was measured by flow cytometry with a Beckman Coulter Cytomics FC500 (Beckman Coulter Italia, Milano, Italy) by adding annexin-V conjugated to fluorescein isothiocyanate (FITC) to cells according to the manufacturer’s instructions (Annexin-V Fluos, Roche Diagnostic, Monza, Italy). Simultaneously, the cells were stained with PI. Excitation was set at 488 nm, and the emission filters were at 525 and 585 nm, respectively, for FITC and PI.
On the technique in general: In flow cytometry, cells or beads pass a laser one at a time.

Regarding `Cc1cc(Nc2ccc(F)cc2)n2nc(NCCCc3ccccc3)nc2n1` [Compound 8q], the “cell migration / wound closure” value in data set [1] is given as “significantly arrested the movement of cells, preventing wound closure”. Moreover, in [2], the “cells arrested in G2/M” value is 80%. Besides, the IC50 (commonly the concentration that inhibits the measured activity by half) is 29 nM in [3]; 150 ± 20 nM in data set [4]; 130 ± 90 nM in data set [5]; 62 ± 30 nM in [6]; more than 10000 nM in data set [7]. Besides, the “death, morphologic changes, developmental abnormalities” value in [8] (100 nM and 1 μM, 24 and 48 h) is “no death and no morphologic changes or developmental abnormalities; also recorded: No abnormal phenotypes or developmental defects were seen”. Moreover, the “Results (toxicity evaluation)” value in data set [8] (100 nM) and in data set [8] (1 μM) was “Not toxic” throughout. Further, the “% Alterations 24 h” value in data set [8] (100 nM) and in data set [8] (1 μM) was 0% in each case. For the same compound, the “% Lethality 24 h” value in data set [8] (100 nM) and in data set [8] (1 μM) was 0% in each case. Also, the “% Alterations 48 h” value in data set [8] (100 nM) and in [8] (1 μM) was 0% throughout. In addition, the “% Lethality 48 h” value in data set [8] (100 nM) and in [8] (1 μM) was 0% throughout. For the same compound, the “Monomers (%) (monomeric JC-1)” value in [9] is 64.4%. Further, the “concentration from which apoptosis was induced” value in [10] was 50 nM.
